Test results: the supplement of paper PMC4862054

How the values were obtained:
Test in all cases: normalised response (% of control), CellTox Green; higher = less cell death (100 = DMSO, 0 = benzethonium chloride kill control)
Conditions in all cases: incubation time: 72 h
BT-474 = system: BT-474
How it was run: (§1)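 Compound was dispensed into 384-well plates at 5 concentrations in 10-fold steps spanning a 10,000-fold range specific to that compound. Breast cancer cell lines were added as 20 µl suspension and left for 72 h before CellTox Green fluorescence (485/520 nm) and then CellTiter-Glo luminescence, read after 10 min at room temperature. Each reported value is the normalised signal at one concentration, with 0.1 % DMSO set at 100 and a positive kill control at 0 on each plate.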

BT-549 = system: BT-549
How it was run: as §1

CAL-120 = system: CAL-120
How it was run: as §1

CAL-148 = system: CAL-148
How it was run: as §1

CAL-51 = system: CAL-51
How it was run: as §1

CAL-85-1 = system: CAL-85-1
How it was run: as §1

DU-4475 = system: DU-4475
How it was run: as §1

HCC1143 = system: HCC1143
How it was run: as §1

HCC1599 = system: HCC1599
How it was run: as §1

HCC1937 = system: HCC1937
How it was run: as §1

HDQ-P1 = system: HDQ-P1
How it was run: as §1

MCF-10A = system: MCF-10A
How it was run: as §1

MDA-MB-231 = system: MDA-MB-231
How it was run: as §1

MDA-MB-436 = system: MDA-MB-436
How it was run: as §1

MDA-MB-453 = system: MDA-MB-453
How it was run: as §1

MDA-MB-468 = system: MDA-MB-468
How it was run: as §1

MFM-223 = system: MFM-223
How it was run: as §1

Hs578T = system: Hs578T
How it was run: as §1

Row | Compound | normalised response (BT-474) | normalised response (BT-549) | normalised response (CAL-120) | normalised response (CAL-148) | normalised response (CAL-51) | normalised response (CAL-85-1) | normalised response (DU-4475) | normalised response (HCC1143) | normalised response (HCC1599) | normalised response (HCC1937) | normalised response (HDQ-P1) | normalised response (MCF-10A) | normalised response (MDA-MB-231) | normalised response (MDA-MB-436) | normalised response (MDA-MB-453) | normalised response (MDA-MB-468) | normalised response (MFM-223) | normalised response (Hs578T)
1 | CN1CCC(COc2cnc(-c3cccc(Cn4nc(-c5cccc(C#N)c5)ccc4=O)c3)nc2)CC1 (1000 nM) | 98.4% | 115% | 95.6% | 103% | 99.9% | 85% | 105% | 128% | 106% | 123% | 95.5% | 88.3% | 125% | 112% | 105% | 140% | 94% | –
2 | CN(C)C/C=C/C(=O)Nc1cc2c(Nc3ccc(F)c(Cl)c3)ncnc2cc1O[C@H]1CCOC1 [Afatinib] (1000 nM) | 52.4% | 107% | 94.1% | 94.1% | 106% | 66.4% | 106% | – | 104% | – | 93.8% | 99.6% | 117% | 102% | 97.1% | 110% | 99.8% | –
3 | Nc1nc(Cl)nc2c1ncn2[C@H]1C[C@H](O)[C@@H](CO)O1 [Cladribine] (100 nM) | 99.7% | 127% | 101% | 95.7% | 109% | 104% | 103% | 119% | 98.3% | 85.4% | 110% | – | – | 73.8% | 108% | 72.2% | 78.7% | 98%
4 | Nc1nc(Cl)nc2c1ncn2[C@H]1C[C@H](O)[C@@H](CO)O1 [Cladribine] (1000 nM) | 102% | 86.3% | 101% | 73.7% | 107% | 83.4% | 100% | – | 96% | 92.2% | 95.9% | 100% | 86.3% | 85.4% | 101% | 50.6% | 74.4% | 111%
5 | COc1cccc2c1C(=O)c1c(O)c3c(c(O)c1C2=O)C[C@@](O)(C(=O)CO)C[C@@H]3O[C@H]1C[C@H](N)[C@H](O)[C@H](C)O1 [Doxorubicin] (100 nM) | 105% | 160% | 100% | 81.4% | 43.3% | 96.4% | 96.4% | – | 100% | 134% | 78.6% | 115% | 111% | 95.2% | 109% | 151% | 86.3% | 103%
6 | Clc1ccc(C(c2ccccc2Cl)C(Cl)Cl)cc1 (stereo not given) [Mitotane] (1000 nM) | 100% | 115% | 98.1% | 104% | 103% | 108% | 98.3% | 87% | 93.5% | 99.9% | 56.1% | 96.4% | 95.2% | 96.3% | 100% | 140% | 93.7% | –
7 | Clc1ccc(C(c2ccccc2Cl)C(Cl)Cl)cc1 (stereo not given) [Mitotane] (10000 nM) | 98% | 93.4% | 95.6% | 98.1% | 98.5% | 107% | 97.7% | 68.9% | 99.5% | – | 106% | 100% | – | 99.5% | 104% | 80.3% | 96.9% | 105%
8 | COc1cccc2cc(-c3nc([C@H]4CC[C@H](C(=O)O)CC4)n4ncnc(N)c34)[nH]c12 [OSI-027] (1000 nM) | 100% | 102% | 97.3% | 107% | 104% | 93.6% | 97.3% | – | 101% | – | 108% | 106% | 65% | 91.9% | 105% | 119% | 98.9% | 106%
9 | C=CC[C@@H]1/C=C(\C)C[C@H](C)C[C@H](OC)[C@H]2O[C@@](O)(C(=O)C(=O)N3CCCC[C@H]3C(=O)O[C@H](/C(C)=C/[C@@H]3CC[C@@H](O)[C@H](OC)C3)[C@H](C)[C@@H](O)CC1=O)[C@H](C)C[C@@H]2OC [Tacrolimus] (1000 nM) | 99.5% | 116% | 99.5% | 104% | 110% | 96.3% | 100% | 102% | 90.2% | 97.2% | – | 108% | 108% | 89.6% | 106% | 130% | – | –
10 | C=CC[C@@H]1/C=C(\C)C[C@H](C)C[C@H](OC)[C@H]2O[C@@](O)(C(=O)C(=O)N3CCCC[C@H]3C(=O)O[C@H](/C(C)=C/[C@@H]3CC[C@@H](O)[C@H](OC)C3)[C@H](C)[C@@H](O)CC1=O)[C@H](C)C[C@@H]2OC [Tacrolimus] (10000 nM) | 101% | 103% | 97.6% | 95.8% | 97.9% | 92.3% | 99.8% | 91.2% | 100% | 93.6% | 88.2% | 70.6% | – | 92.5% | 100% | 52.5% | 98.3% | 112%
11 | CS(=O)(=O)c1ccc(C(=O)Nc2ccc(Cl)c(-c3ccccn3)c2)c(Cl)c1 [Vismodegib] (1000 nM) | 100% | 99.3% | 95% | 104% | 86.1% | 94.4% | 99% | – | 85.9% | 106% | 88.1% | 88.2% | 90.8% | 98% | 99.7% | 149% | 99.1% | 100%
